In PubChem BioAssay (NCI):
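48-hour exposure; five concentrations; linearly interpolated endpoints. The concentration for full growth arrest is given as TGI.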

Key:
Assay in all cases: NCI anticancer screen, dose series, 48 h
EKVX NSCLC = system: EKVX NSCLC
M14 melanoma = system: M14 melanoma
MALME-3M melanoma = system: MALME-3M melanoma
NCI-H226 lung = system: NCI-H226 lung
RXF 393 renal = system: RXF 393 renal
BT-549 breast = system: BT-549 breast
MCF7 breast = system: MCF7 breast
MDA-MB-231 breast = system: MDA-MB-231 breast
OVCAR-3 ovarian = system: OVCAR-3 ovarian
HS 578T breast = system: HS 578T breast

SMILES | TGI (EKVX NSCLC) [µM] | TGI (M14 melanoma) [µM] | TGI (MALME-3M melanoma) [µM] | TGI (NCI-H226 lung) [µM] | TGI (RXF 393 renal) [µM] | TGI (BT-549 breast) [µM] | TGI (MCF7 breast) [µM] | TGI (MDA-MB-231 breast) [µM] | TGI (OVCAR-3 ovarian) [µM] | TGI (HS 578T breast) [µM]
COc1ccc2c(c1OC)C(=O)C2 | > 100 | > 100 | > 100 | > 100 | > 100 | – | – | – | – | –
COC(=O)c1ccc(OCCn2nnc(C(=O)NN)c2C(=O)NN)cc1 | > 100 | > 100 | > 100 | – | – | > 100 | > 100 | > 100 | > 100 | –
COc1cc(/C=C/c2ccc(OC)c(OC)c2)oc(=O)c1 | > 116 | – | > 250 | > 250 | > 216 | – | > 250 | – | > 250 | –
Cc1cccc2c(=O)c3cccc([C@H](C)C(=O)O)c3oc12 | > 100 | > 100 | > 100 | > 100 | – | > 100 | – | > 100 | > 100 | > 100
COC(=O)[C@@]12CSC[C@]1(C(=O)OC)N[C@@H](c1ccccc1O)C2 | > 100 | > 100 | > 100 | > 100 | > 100 | > 100 | > 100 | – | > 100 | > 100
COP(=O)(OC)C(N)Cc1c[nH]c2ccccc12 (stereo unspecified) | – | > 100 | – | > 100 | – | – | > 100 | > 100 | > 100 | > 100
CC1[C@@]2(O[C@@H]3C=C4C5CCC6Cc7nc8c(nc7C[C@@]6(C)C5C[C@H](O)[C@@]4(C)[C@]13O)CC1CCc3c(cc4c5c3C(O)C[C@H]5[C@@H](C)C3(O4)OC(C)(C)CC3O)[C@]1(C)C8)O[C@@](C)(CO)C[C@@H]2O (stereo partly specified) | > 3.72 | – | 2.22 | 2.35 | 0.153 | – | > 3.72 | – | > 3.72 | –
O=[N+]([O-])c1ccc(C[P+]2(c3ccccc3)CCCCC2)cc1 (tested in a mixture with another compound) | > 100 | > 100 | > 100 | – | > 100 | – | – | – | > 100 | –
COC(=O)c1csc(-c2csc(CCNC(=O)OC(C)(C)C)n2)n1 | > 100 | > 100 | > 100 | > 100 | > 100 | > 100 | > 100 | – | > 100 | > 100
O=C(Cn1c2ccc(Br)cc2c2nc3ccccc3nc21)NCc1ccccc1 | – | > 100 | > 100 | > 100 | 26.9 | > 100 | – | > 100 | > 100 | 92.4
CC1=NNC(=O)C1C1(C(=O)O)CC(c2c[nH]c3ccccc23)=NC(=S)N1 (stereo unspecified) | > 100 | 37.9 | 74.3 | 85.8 | 94.3 | > 100 | – | 81.7 | 65.8 | 47.7
COc1ccc(N2C(=O)C3ON(Cc4ccc(CC(N)=O)cc4)C(c4c5ccccc5c(C)c5ccccc45)C3C2=O)cc1 (stereo unspecified) | 54.9 | > 100 | > 100 | – | 48.8 | > 100 | 46.6 | > 100 | > 100 | > 100
O=C(COc1cc(=O)oc2ccccc12)c1ccccc1 | > 100 | > 100 | > 100 | 49 | – | > 100 | > 100 | > 100 | 39.9 | 73.7
COc1ccc(-c2cc(=O)c3c(O)c(O)c(OC)cc3o2)cc1O | > 100 | > 100 | > 100 | > 100 | > 100 | – | – | – | > 100 | –
CCN(CC)CCC(=O)/C=C/c1ccc(Cl)c(Cl)c1 | > 10 | > 10 | > 10 | > 10 | – | > 10 | > 10 | > 10 | > 10 | –
COc1cc(/C=C/C(=O)CC(=O)/C=C/c2cc(C)c(O)c(OC)c2)cc(C)c1O | > 100 | > 100 | > 100 | > 100 | – | > 100 | > 100 | > 100 | > 100 | > 100
O=C(CC(C(=O)c1ccsc1)c1cccs1)c1ccccc1 (stereo unspecified) | > 100 | > 100 | – | > 100 | > 100 | – | > 100 | > 100 | > 100 | > 100
COc1c(C(=O)/C(=N/Nc2ccc(C(=O)O)cc2)C(C)=O)c(O)cc2occc12 | > 100 | > 100 | > 100 | > 100 | > 100 | – | > 100 | > 100 | > 100 | > 100
